The record followed here is BindingDB's records for doi:10.1021/jm030008u (Nida-Irp, 2003).

Each structure is given as a SMILES string.

This test can be described thus: Binding affinity against Sigma receptor type 1 was determined by the displacement of [3H]pentazocine radioligand. In general terms: Loss of bound radioactivity is the signal in a displacement assay; it reports binding, not function.
`C[C@@H]1CN(CCCn2c3ccc(Br)cc3c3cc(Br)ccc32)C[C@@H](C)N1` [3,6-Dibromo-9-[3-(3,5-dimethyl-piperazin-1-yl)-propyl]-9H-carbazole] displayed an inhibition constant Ki of 4420 nM.

In turn, `C[C@@H]1CN(CCCn2c3ccccc3c3ccccc32)C[C@@H](C)N1C` [9-[3-(3,4,5-Trimethyl-piperazin-1-yl)-propyl]-9H-carbazole] showed a Ki of 552 nM.

The molecule `C[C@@H]1CN(CCCn2c3ccccc3c3cc([N+](=O)[O-])ccc32)C[C@@H](C)N1` [9-[3-(3,5-Dimethyl-piperazin-1-yl)-propyl]-3-nitro-9H-carbazole] gave a Ki of 596 nM.

As for `C[C@@H]1CN(CCCn2c3ccccc3c3cc(N)ccc32)C[C@@H](C)N1` [9-[3-(3,5-Dimethyl-piperazin-1-yl)-propyl]-9H-carbazol-3-ylamine], the Ki came to 5720 nM.

In the case of `C[C@@H]1CN(CCCn2c3ccccc3c3ccccc32)C[C@@H](C)N1CCCc1ccccc1` [9-{3-[3,5-Dimethyl-4-(3-phenyl-propyl)-piperazin-1-yl]-propyl}-9H-carbazole], the affinity corresponds to a Ki of 104 nM.

`C[C@@H]1CN(CCCN(c2ccc(F)cc2)c2ccc(F)cc2)C[C@@H](C)N1CCc1ccc(Cl)c(Cl)c1` [(3-{(3R,5R)-4-[2-(3,4-Dichloro-phenyl)-ethyl]-3,5-dimethyl-piperazin-1-yl}-propyl)-bis-(4-fluoro-phenyl)-amine] returned an inhibitory constant (Ki) of 32.5 nM.

`C[C@@H]1CN(CCCN(c2ccccc2)c2ccccc2)C[C@@H](C)N1CCc1ccc(Cl)c(Cl)c1` [(3-{(3R,5R)-4-[2-(3,4-Dichloro-phenyl)-ethyl]-3,5-dimethyl-piperazin-1-yl}-propyl)-diphenyl-amine] showed a Ki of 29.6 nM.

`Fc1ccc(N(CCCN2CCNCC2)c2ccc(F)cc2)cc1` [Bis-(4-fluoro-phenyl)-(3-piperazin-1-yl-propyl)-amine] yielded an inhibition constant Ki of 1390 nM.

`Fc1ccc(N(CCCN2CCN(CCCc3ccccc3)CC2)c2ccc(F)cc2)cc1` [Bis-(4-fluoro-phenyl)-{3-[4-(3-phenyl-propyl)-piperazin-1-yl]-propyl}-amine] yielded a Ki of 66.2 nM.

For `Fc1ccc(N(CCCN2CCN(Cc3ccccc3)CC2)c2ccc(F)cc2)cc1` [N-(3-(4-benzylpiperazin-1-yl)propyl)-4-fluoro-N-(4-fluorophenyl)benzenamine], the inhibition constant Ki was determined as 13.1 nM.

`CCN(CC)CCOCCOC(=O)C1(c2ccccc2)CCCC1` [SMR000326757] returned a Ki of 19.5 nM.

The molecule `C[C@@H]1CN(CCCN(c2ccc(F)cc2)c2ccc(F)cc2)C[C@@H](C)N1` [[3-((3R,5R)-3,5-Dimethyl-piperazin-1-yl)-propyl]-bis-(4-fluoro-phenyl)-amine] returned a Ki of 124 nM.

The molecule `C[C@@H]1CN(CCCN(c2ccccc2)c2ccccc2)C[C@@H](C)N1` [[3-((3R,5R)-3,5-Dimethyl-piperazin-1-yl)-propyl]-diphenyl-amine] returned an inhibition constant (Ki) of 138 nM.

On to `C[C@@H]1CN(CCCN(c2ccc(F)cc2)c2ccc(F)cc2)C[C@@H](C)N1CCCc1ccccc1` [{3-[3,5-Dimethyl-4-(3-phenyl-propyl)-piperazin-1-yl]-propyl}-bis-(4-fluoro-phenyl)-amine], for which the Ki was determined as 11.1 nM.

`C[C@@H]1CN(CCCN(c2ccccc2)c2ccccc2)C[C@@H](C)N1CCCc1ccccc1` [{3-[3,5-Dimethyl-4-(3-phenyl-propyl)-piperazin-1-yl]-propyl}-diphenyl-amine] returned a Ki of 97.2 nM.

Usually Ki stands for a dissociation constant, usually derived from enzyme kinetics or from competition with a known ligand. Read a high Ki as a looser hold on the target.
